The text below walks through data of PMC6601628 (Science (New York, N.Y.), 2019).

For test [1], the target named is eIF2B(βγδε)2 octamer (Homo sapiens, UniProt P49770+Q9UI10). Nature of the test: GEF activity, loading of fluorescent GDP onto eIF2. The class given is biochemical. To be noted: activator; stabilises assembly of two tetramers; substrate eIF2.
Test [2] deals with eIF2B(βγδε)2 octamer (Homo sapiens, UniProt P49770+Q9UI10, P49770:N132D). The experiment in a line: GEF activity, loading of fluorescent GDP onto eIF2. The class given is biochemical. To be noted: activator; stabilises assembly of two tetramers; substrate eIF2.

The structures appear in SMILES notation.

eIF2B(βγδε)2 octamer (Homo sapiens, UniProt P49770+Q9UI10, P49770:N132D), sequence (P49770 whole entry N132D): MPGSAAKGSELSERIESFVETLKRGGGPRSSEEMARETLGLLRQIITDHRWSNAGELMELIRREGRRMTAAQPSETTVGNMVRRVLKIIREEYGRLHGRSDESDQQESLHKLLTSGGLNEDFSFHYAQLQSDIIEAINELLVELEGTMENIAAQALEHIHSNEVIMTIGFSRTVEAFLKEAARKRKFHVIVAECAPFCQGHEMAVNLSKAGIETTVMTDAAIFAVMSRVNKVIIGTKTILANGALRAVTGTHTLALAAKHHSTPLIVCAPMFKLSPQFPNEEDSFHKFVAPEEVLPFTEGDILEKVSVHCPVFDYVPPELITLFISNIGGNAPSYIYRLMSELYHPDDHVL
eIF2B(βγδε)2 octamer (Homo sapiens, UniProt P49770+Q9UI10, P49770:N132D), sequence (Q9UI10 whole entry): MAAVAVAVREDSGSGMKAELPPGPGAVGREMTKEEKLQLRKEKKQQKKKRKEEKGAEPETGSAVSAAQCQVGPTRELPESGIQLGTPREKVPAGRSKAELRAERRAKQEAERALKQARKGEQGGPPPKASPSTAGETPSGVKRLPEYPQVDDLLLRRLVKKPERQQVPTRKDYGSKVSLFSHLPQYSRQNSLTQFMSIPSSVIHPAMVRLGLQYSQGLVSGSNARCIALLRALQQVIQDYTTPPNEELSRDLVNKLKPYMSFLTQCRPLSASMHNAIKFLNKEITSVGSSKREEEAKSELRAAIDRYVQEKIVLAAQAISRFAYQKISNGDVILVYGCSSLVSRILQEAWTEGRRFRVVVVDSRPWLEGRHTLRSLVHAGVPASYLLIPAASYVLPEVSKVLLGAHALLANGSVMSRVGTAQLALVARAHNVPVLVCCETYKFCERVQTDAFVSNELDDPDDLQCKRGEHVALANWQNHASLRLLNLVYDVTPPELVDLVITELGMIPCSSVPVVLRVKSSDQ
eIF2B(βγδε)2 octamer (Homo sapiens, UniProt P49770+Q9UI10, P49770:N132D), sequence (Q9NR50 whole entry partner): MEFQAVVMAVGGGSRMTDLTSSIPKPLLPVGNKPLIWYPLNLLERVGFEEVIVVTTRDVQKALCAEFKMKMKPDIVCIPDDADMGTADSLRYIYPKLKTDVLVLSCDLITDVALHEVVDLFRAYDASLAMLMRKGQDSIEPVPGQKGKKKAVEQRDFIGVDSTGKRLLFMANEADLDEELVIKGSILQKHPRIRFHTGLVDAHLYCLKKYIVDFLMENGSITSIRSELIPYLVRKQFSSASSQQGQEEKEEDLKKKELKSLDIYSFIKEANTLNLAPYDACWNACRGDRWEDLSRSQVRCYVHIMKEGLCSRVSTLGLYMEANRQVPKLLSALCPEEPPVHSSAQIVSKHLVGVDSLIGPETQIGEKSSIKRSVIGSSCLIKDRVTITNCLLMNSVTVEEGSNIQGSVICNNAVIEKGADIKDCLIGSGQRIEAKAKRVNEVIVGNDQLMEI
eIF2B(βγδε)2 octamer (Homo sapiens, UniProt P49770+Q9UI10, P49770:N132D), sequence (Q13144 2-721 partner): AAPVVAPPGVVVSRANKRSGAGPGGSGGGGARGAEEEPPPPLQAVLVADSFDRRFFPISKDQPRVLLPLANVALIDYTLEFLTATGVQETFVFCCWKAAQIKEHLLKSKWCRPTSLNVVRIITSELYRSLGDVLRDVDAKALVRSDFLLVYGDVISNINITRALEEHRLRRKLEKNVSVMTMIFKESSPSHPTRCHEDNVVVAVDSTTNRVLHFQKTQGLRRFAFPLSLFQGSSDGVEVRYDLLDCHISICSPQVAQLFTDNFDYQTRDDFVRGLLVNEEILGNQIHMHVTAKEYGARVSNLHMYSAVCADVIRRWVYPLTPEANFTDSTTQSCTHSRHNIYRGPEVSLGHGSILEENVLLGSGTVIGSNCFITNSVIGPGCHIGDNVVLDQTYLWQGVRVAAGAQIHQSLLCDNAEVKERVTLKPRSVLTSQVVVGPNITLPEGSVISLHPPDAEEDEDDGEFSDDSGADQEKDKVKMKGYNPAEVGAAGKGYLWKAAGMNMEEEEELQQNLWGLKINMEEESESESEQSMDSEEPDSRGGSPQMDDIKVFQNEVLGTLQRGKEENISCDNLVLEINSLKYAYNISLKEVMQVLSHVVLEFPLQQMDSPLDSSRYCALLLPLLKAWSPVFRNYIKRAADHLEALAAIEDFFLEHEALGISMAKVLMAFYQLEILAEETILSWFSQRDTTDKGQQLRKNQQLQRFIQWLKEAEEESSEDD
eIF2B(βγδε)2 octamer (Homo sapiens, UniProt P49770+Q9UI10), sequence (P49770 whole entry): as the sequence (P49770 whole entry N132D) above, with D132N counted along it
eIF2B(βγδε)2 octamer (Homo sapiens, UniProt P49770+Q9UI10), sequence (Q9UI10 whole entry): as the sequence (Q9UI10 whole entry) above
eIF2B(βγδε)2 octamer (Homo sapiens, UniProt P49770+Q9UI10), sequence (Q9NR50 whole entry partner): as the sequence (Q9NR50 whole entry partner) above
eIF2B(βγδε)2 octamer (Homo sapiens, UniProt P49770+Q9UI10), sequence (Q13144 2-721 partner): as the sequence (Q13144 2-721 partner) above

As for `O=C(COc1ccc(Cl)cc1)N[C@H]1CC[C@H](NC(=O)COc2ccc(Cl)cc2)CC1` [ISRIB], the “GEF activity, loading of fluorescent GDP onto eIF2” value in test [1] was “GEF activity of the ISRIB-stabilized eIF2B octamer”; in test [2], “eIF2B-βN132D tetramers and ISRIB-stabilized octamers”.
